{"source": "paper PMC7764069", "about": "(Microorganisms, 2020)", "key": {"[1]": {"conditions": "BXA in humans; mimicked by 15 mg/kg BXM BID for 5 days orally in immunocompetent mice; cited from earlier work"}, "A(H1N1)pdm09 virus": {"system": "A(H1N1)pdm09 virus", "design": "method as in PMID 31837268", "conditions": "nude mice, BXM 10 mg/kg once daily for 28 days; untreated controls 5 days; cited from earlier work"}, "[2]": {"system": "splenic T, B and NK cells", "conditions": "for frequency of proliferating B cells: day 4 post infection; for frequency of proliferating B cells / percentage of proliferating T cells: CP 100 mg/kg i.p."}}, "note": "Where two headings read alike, the source gives them in different places.", "data": [{"smiles": "O=C1c2c(O)c(=O)ccn2N([C@@H]2c3ccccc3SCc3c2ccc(F)c3F)[C@@H]2COCCN12", "note": "[BXA, baloxavir acid]", "values": [{"measurement": "target plasma concentration", "setting": "[1]", "result": 6.85, "unit": "ng/mL"}]}, {"smiles": "COC(=O)OCOc1c2n(ccc1=O)N([C@@H]1c3ccccc3SCc3c1ccc(F)c3F)[C@@H]1COCCN1C2=O", "note": "[BXM, baloxavir marboxil]", "values": [{"measurement": "median survival time", "setting": "A(H1N1)pdm09 virus", "result": 49, "unit": "days"}]}, {"smiles": "O=P1(N(CCCl)CCCl)NCCCO1", "note": "(stereo not shown) [CP, cyclophosphamide]", "values": [{"measurement": "NK proliferative capacity", "setting": "[2]; following CP administration, day 4 p.i.", "result": "no significant decline"}, {"measurement": "frequency of proliferating B cells", "setting": "[2]; infected animals, without CP 94.7%", "result": 40.7, "unit": "%"}, {"measurement": "percentage of proliferating T cells", "setting": "[2]; infected mice, day 4 p.i., without CP […]", "result": 72.6, "unit": "%"}, {"measurement": "percentage of proliferating T cells", "setting": "[2]; uninfected mice, day 4 p.i., without CP 92.2%", "result": 63.1, "unit": "%"}, {"measurement": "frequency of proliferating B cells", "setting": "[2]; uninfected mice, without CP 82.5%", "result": 36.2, "unit": "%"}]}]}
